We go through four compounds from patent US7728146B2, “Enzyme inhibitors” (Probiodrug AG, priority 2006, dated 2010).

Like-named read-outs stand apart in the source and are kept apart here.

The target in data set [1] is dipeptidyl peptidase (DP IV) (UniProt P27487). Kind of data set: Determination of IC50 against DP IV (hydrolysis of Gly-Pro-pNA). The class given is biochemical, porcine kidney or recombinant human. The conditions noted are these: compounds obtained by preparative synthesis. In a few lines:
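Porcine kidney or recombinant human DP IV (about 40–50 μU/ml) in HEPES pH 7.6 (I=0.32) with Gly-Pro-pNA at room temperature, 5% DMSO, 11 twofold dilutions from 100 μM final. pNA release at 405 nm over ~18 min; slopes give residual activity versus solvent, IC50 by 4-parameter fit.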

A further data set deals with DPII (Homo sapiens, UniProt Q9UHL4). The experiment in a line: DPII assay. Type of data set: biochemical. The conditions noted are these: for Selectivity DPII(IC50)/DPIV(Ki): ratio IC50 DPII / Ki DP IV. On the procedure: Determination of IC50 values for DPII and DP9 are done similarly as described for DP IV.
For DPII instead of the HEPES buffer a 0.2 M sodium acetate buffer pH 5.5 is used. As substrate Gly-Pro-AMC is used in a final concentration of 1 mM.

Data set [2] in a line: Bioavailability studies (pharmacokinetics after oral and intraarterial administration). Type of data set: in vivo, rat. The conditions noted are these: for AUC / AUC(0-inf) / AUC(0-t) / Cmax / Tmax / AUC/Dose / half-life: male Wistar rats; for AUC: cross-over design; for AUC(0-inf) / AUC(0-t) / Cmax / Tmax / AUC/Dose / half-life: hydrochloride salt, Mean ± SD; for bioavailability: calculated from Mean AUC p.o. / Mean AUC i.a., read-out: F (bioavailability). The procedure:
Male Wistar rats (N=25; Crl:WI) with a body weight ranging between 300 and 350 g were purchased from Harlan Winkelmann GmbH (Borchen, Germany).
All studycompounds were used in the form of the hydrochloride salt.
One week after adaptation to the housing conditions, catheters were implanted into the carotid artery of the rats under general anaesthesia (i.p. injection of 0.25 mL/kg b.w. Rompun® [2%], BayerVital, Germany and 0.5 mL/kg b.w. Ketamin 10, Atarost GmbH & Co., Twistringen, Germany). The animals were allowed to recover for one week. The catheters were flushed with heparin-saline (100 IU/mL) three times per week.
After overnight fast, the inhibitors were administered the oral route via a feeding tube (15 g, 75 mm; Fine Science Tools, Heidelberg, Germany) and the intraarterial route via the arterial catheter. In case of intraarterial administration, the catheter was immediately flushed with 30 μL saline.
The animals were treated by a single oral dose of 3 mg/kg (5 mL/kg b.w.; treatment A) followed by a wash-out period of at least 3 days before intraarterial administration of 3 mg/kg (2 mL/kg b.w.; treatment B). The compounds were dissolved in saline to a final concentration adequate for an application of 3 mg/kg b.w.
Heparinized blood samples of 170 μL were collected in ice cooled sample tubes at −5, 0 (before medication) and at 5, 15, 30, 45, 60, 120, 240, 360 and 480 min. Blood samples in sample tubes were put shortly on ice and centrifuged thereafter (12,000 rpm for 2 min).
Plasma levels of the DP IV inhibitors were determined by measurement of plasma DP IV activity under standardized conditions using Gly-Pro-pNA as substrate. Plasma levels were calculated from the degree of inhibition using the known inhibition constants and the equation for competitive inhibition.
For determination of plasma DP IV activity, 50 μL sample in an appropriate dilution were incubated with 100 μL Hepes buffer (0.102 M, pH 7.6, I=0.319 M by KCl) and 50 μL water in a 96 well plate. Reaction was started by addition of 50 μL of a 2 mM Gly-Pro-pNA solution. Release of pNA was monitored for 20 min at 30° C. and 405 nm using a GeniousPro plate reader (Tecan). DP IV activity (deltaAbsorbtion/min) was calculated by linear regression of the time response curve. From this activity the concentration of the inhibitor was calculated using the following equation derived from the inhibitor equation for competitive inhibition.
Pharmacokinetic analyses (parameters of the individual PK profiles) and descriptive statistics were carried out using WinNonlin (Version 4.0.1, Professional). Based on plasma concentration data of inhibitors, the following model-independent pharmacokinetic variables were determined:
AUC(0-inf), AUC(0-t), Cmax, tmax, terminal half-life (t1/2) and bioavailability (F).
F (in %) was calculated from the ratio of observed AUC upon oral route of administration to the AUC upon intraarterial administration.

Setting [3] is: sodium acetate buffer pH 5.5, Gly-Pro-AMC 1 mM.
Where [4] appears, read: Wistar (Crl:WI), rat, plasma, po, 3 mg/kg p.o., read-out: Mean AUC p.o.
[5] abbreviates: Wistar (Crl:WI), rat, plasma, 3 mg/kg i.a., read-out: Mean AUC i.a.
[6] abbreviates: Wistar (Crl:WI), rat, plasma, intraarterial 3 mg/kg, N = 4-6.
Setting [7] is: Wistar (Crl:WI), rat, plasma, oral 3 mg/kg, N = 5.
The mark [8] stands for this setting: male, Wistar (Crl:WI), rat, plasma, 3 mg/kg, intraarterial 3 mg/kg, N = 4-6, read-out: Half-life (converted).
[9] abbreviates: male, Wistar (Crl:WI), rat, plasma, po, 3 mg/kg, oral 3 mg/kg, N = 5, read-out: Half-life (converted).
The mark [10] stands for this setting: male, Wistar (Crl:WI), rat, plasma, po, 3 mg/kg.

Turning to `NCc1c(-c2ccc(Cl)cc2Cl)ncn1Cc1ccccc1` [Example 24b, (1-benzyl-4-(2,4-dichlorophenyl)-1H-imidazol-5-yl)methanamine], the values for the IC50 (in data set [1]; against DPII (setting [3])) were 0.123 µM and 30 µM, respectively. Also, the “Selectivity DPII(IC50)/DPIV(Ki)” value on DPII was 6,329. Besides, the AUC (usually concentration integrated over time) in data set [2] (setting [4]) stood at 0.39 µg·h/mL; in data set [2] (setting [5]), 0.51 µg·h/mL. The AUC(0-inf) (as a rule, the area under the concentration-time curve extrapolated to infinity) was 0.64 ± 0.205 µg·h/mL in data set [2] (setting [6]) and 0.65 ± 0.314 µg·h/mL in data set [2] (setting [7]). Also, the AUC(0-t) (as a rule, exposure summed from dosing to a finite time, without extrapolation to infinity) was found to be 0.51 ± 0.151 µg·h/mL in data set [2] (setting [6]) and 0.39 ± 0.149 µg·h/mL in data set [2] (setting [7]). For the same compound, the Cmax (commonly the peak of the concentration-time curve) worked out at 0.44 ± 0.073 µg/mL in data set [2] (setting [6]) and 0.13 ± 0.036 µg/mL in data set [2] (setting [7]). In data set [2] (setting [7]), the Tmax – broadly, the time at which the peak concentration occurs – came to 0.75 ± 0.177 h. For the same compound, the AUC/Dose in data set [2] (intraarterial 3 mg/kg, N = 4-6) came to 0.18 ± 0.093 kg·µg·h/mL/mg; in data set [2] (oral 3 mg/kg, N = 5), 0.22 ± 0.105 kg·µg·h/mL/mg. Further, the half-life (in general, the time needed for the level to fall by half in the phase considered) is 2.94 ± 1.39 h in data set [2] (setting [8]) and 4.83 ± 4.08 h in data set [2] (setting [9]). Moreover, the bioavailability – broadly, dose-corrected exposure relative to a reference, in per cent – in data set [2] (setting [10]) was 76%.

As to `NCc1c(-c2ccc(Cl)cc2Cl)ncn1Cc1ccccn1` [Example 39b], the IC50 (in general, the concentration at which inhibition is half-maximal) in data set [1] was 0.059 µM; at DPII (setting [3]) it was over 100 µM. Moreover, on DPII, the “Selectivity DPII(IC50)/DPIV(Ki)” value is >176,056. Also, the area under the curve (AUC) in data set [2] (setting [4]) worked out at 0.14 µg·h/mL; in data set [2] (setting [5]) it was 0.33 µg·h/mL. Besides, the AUC(0-inf) in data set [2] (setting [6]) was found to be 0.41 ± 0.191 µg·h/mL; in data set [2] (setting [7]), 0.29 ± 0.141 µg·h/mL. Also, the AUC(0-t) worked out at 0.33 ± 0.148 µg·h/mL in data set [2] (setting [6]) and 0.14 ± 0.075 µg·h/mL in data set [2] (setting [7]). In addition, the Cmax was determined as 0.28 ± 0.051 µg/mL in data set [2] (setting [6]) and 0.08 µg/mL in data set [2] (setting [7]). In data set [2] (setting [7]), the Tmax is 0.4 ± 0.224 h. The half-life is 1.57 ± 1.138 h in data set [2] (intraarterial 3 mg/kg, N = 4-6); 1.6 h in data set [2] (setting [8]); 3.18 ± 2.13 h in data set [2] (setting [9]). Also, in data set [2] (oral 3 mg/kg, N = 5), the AUC/Dose worked out at 0.10 ± 0.047 kg·µg·h/mL/mg. Moreover, the bioavailability in data set [2] (setting [10]) is 43%.

Consider `NCc1c(-c2ccc(Cl)cc2Cl)ncn1Cc1cccnc1` [Example 121b, (4-(2,4-dichlorophenyl)-1-((pyridin-3-yl)methyl)-1H-imidazol-5-yl)methanamine], for which the IC50 in data set [1] is 0.083 µM; on DPII (values >1e−4 are extrapolated values), 122 µM. Further, the “Selectivity DPII(IC50)/DPIV(Ki)” value at DPII is 41,216. Also, the AUC in data set [2] (setting [4]) was 0.23 µg·h/mL; in data set [2] (setting [5]) it was 0.44 µg·h/mL. Besides, the AUC(0-inf) amounted to 0.63 ± 0.35 µg·h/mL in data set [2] (setting [6]) and 0.35 ± 0.207 µg·h/mL in data set [2] (setting [7]). Besides, the area under the curve AUC(0-t) in data set [2] (setting [6]) was 0.44 ± 0.215 µg·h/mL; in data set [2] (setting [7]), 0.23 ± 0.206 µg·h/mL. Besides, the Cmax in data set [2] (setting [6]) was determined as 0.4 ± 0.12 µg/mL; in data set [2] (setting [7]), 0.11 ± 0.051 µg/mL. Also, the Tmax in data set [2] (setting [7]) came out at 0.45 ± 0.274 h. Besides, the AUC/Dose in data set [2] (intraarterial 3 mg/kg, N = 4-6) came out at 0.21 ± 0.115 kg·µg·h/mL/mg; in data set [2] (oral 3 mg/kg, N = 5), 0.12 ± 0.069 kg·µg·h/mL/mg. In addition, the half-life in data set [2] (setting [8]) was 1.98 ± 0.994 h; in data set [2] (setting [9]), 3.26 ± 3.87 h. In data set [2] (setting [10]), the bioavailability was 53%.

`NCc1c(-c2ccc(Cl)cc2Cl)ncn1Cc1ccsc1` [Example 130b, (4-(2,4-dichlorophenyl)-1-((thiophen-3-yl)methyl)-1H-imidazol-5-yl)methanamine]: the IC50 in data set [1] turned out to be 0.062 µM; against DPII (setting [3]) it was 1.43 µM. Further, the Ki (commonly the dissociation constant of the complex between target and ligand, obtained from inhibition or displacement) on DPII is 3.84 µM. Moreover, at DPII, the “Selectivity DPII(IC50)/DPIV(Ki)” value worked out at 186. Moreover, the AUC turned out to be 1.27 µg·h/mL in data set [2] (setting [4]) and 1.68 µg·h/mL in data set [2] (setting [5]). Further, the AUC(0-inf) worked out at 2.47 ± 1.44 µg·h/mL in data set [2] (setting [6]) and 2.33 ± 1.18 µg·h/mL in data set [2] (setting [7]). Further, the values for the AUC(0-t) in data set [2] (setting [6]) and in data set [2] (setting [7]) were 1.68 ± 0.516 µg·h/mL and 1.27 ± 0.618 µg·h/mL, respectively. Moreover, the Cmax in data set [2] (setting [6]) worked out at 1.16 ± 0.47 µg/mL; in data set [2] (setting [7]), 0.3 µg/mL. Moreover, the time of peak concentration (Tmax) in data set [2] (setting [7]) came out at 0.55 ± 0.326 h. Besides, the half-life in data set [2] (intraarterial 3 mg/kg, N = 4-6) was 4.00 ± 2.308 h; in data set [2] (setting [8]), 5.5 h; in data set [2] (setting [9]), 5.49 ± 1.52 h. Also, in data set [2] (oral 3 mg/kg, N = 5), the AUC/Dose worked out at 0.78 ± 0.394 kg·µg·h/mL/mg. In addition, in data set [2] (setting [10]), the bioavailability was 76%.
